In US20030176381A1, “Hyaluronic acid in the treatment of cancer” (priority 2002, published 2003):

Columns and labels:
[1] = system: HT-1080 human fibrosarcoma cancer cells; assay: MTT cell proliferation, HT-1080; type: cell-based; conditions: 48 h
Description: (§1) Cell proliferation was measured using dimethylthiazoldiphenyltetrazolium (MTT) reduction (Mosman et al. J. Immunol. Methods 65:55, 1983). Unless otherwise stated, 100 Al of 5 mg of MTT (Sigma-Aldrich, St. Louis, Mo., USA) dissolved in 1 ml of PBS was added into each well. After 4 h, medium was removed from each well, 1.0 ml of acid-isopropanol (0.04 N HCI in isopropanol) was added and reduced MTT was solubilized by mixing. Absorbency of the reaction product was measured at a wavelength of 570 nm using a multiplate spectrophotometer reader (Elx800 Model, Bio-TEK Instruments Inc., Winooski, Vt., USA).
(§2) Unless stated otherwise 1.0 x 10^5 cells/ml were seeded in 6-well flat-bottom tissue culture plates and were maintained for 48 h at 370 C in a 5% CO2 atmosphere.
(§3) PC-3, LNCAP and Du-145 human prostate cancer cells; MCF-7 human breast cancer cells; HT-1080 human fibrosarcoma cancer cells; B16F1 murine melanoma cells; and, UMUC-3, RT-4, HT-1376 and T-24 human bladder cancer cells were incubated with 0.8, 8.0 and 80 μg/ml of 5.0-7.5 x 10^5 Da HA (Table 2).

[2] = system: IL-6 production by peripheral blood mononuclear cells; assay: IL-6 production by PBMCs (ELISA); type: cell-based, humans
Description: Peripheral blood mononuclear cells (hereinafter, “PBMCs”) were isolated from the blood of 5 healthy humans by Ficoll-Hypaque (Amersham Pharmacia Biotech, Baie d'Urfee, Quebec, Canada) density gradient centrifugation of whole blood. Stimulation of IL-6 and IL-12 production by the immune system cells was determined using the appropriate commercial ELISA (BioSource, Camarillo, CA, USA). Results are expressed as the “fold” (x) increases in cytokine production by treated cells compared to control cells.
PBMCs were incubated with 1 mg/ml of 5.0-7.5 x 105 Da and production of IL-6 and IL-12 was determined (Table 9).
PBMCs, isolated from the blood of individual #1, were incubated with 0.008, 0.04, 0.2 and 1 mg/ml of 5.0-7.5 x 10^5 Da (Table 10)

[3] = system: Du-145 human prostate cancer cells; assay: MTT cell proliferation, Du-145; type: cell-based
Description: as §1, §2, §3
PC-3. LNCaP and Du-145 human prostate cancer cells were incubated with 8.0 jg/ml of 5.0-7.5 x 105 Da HA or of <1.5 x 10^4 Da HA (Table 3).
Unless stated otherwise 2.0 x 10^4 cells/ml were seeded in 24-well plates and were maintained for 48 h at 370 C in a 5% CO2 atmosphere. MTT was used at 50 μl per well.
T-24 human bladder cancer cells, PC-3 and Du-145 human prostate cancer cells, and MCF-7 human breast cancer cell were incubated with saline or with 80.0 jg/ml of 5.0-7.5 x 105 Da HA +1.0 μg/ml of M-DNA (Table 4).
(§4) CD44 expression and the inhibition of proliferation by 5.0-7.5 x 10^5 Da HA were measured using Jurkat T cell leukemia cells; MCF-7 human breast cancer cells; RT-4, T-24, HT-1376 and UMUC-3 human bladder cancer cells; and, PC-3, Du-145 and LNCaP prostate cancer cells (Table 8)

[4] = system: UMUC-3 human bladder cancer cells; assay: MTT cell proliferation, UMUC-3; type: cell-based; conditions: 48 h
Description: as §1, §2, §3, §4

Question: For Hyaluronic acid [5.0-7.5 × 10^5 Da HA], which “% INHIBITION of cell proliferation” value ([1]; HA 0.8 μg/ml) is on record?
Answer: 4%

Question: And the “% INHIBITION of cell proliferation” value ([1]; HA 8.0 μg/ml)?
Answer: 4%

Question: And the “% INHIBITION of cell proliferation” value ([1]; HA 80.0 μg/ml)?
Answer: 36%

Question: And the “IL-6 production, fold increase vs control cells” value (“IL-6 production, fold increase” below) ([2]; PBMCs of individual 1, HA 1 mg/ml)?
Answer: 3.8x

Question: And the “IL-6 production, fold increase” value ([2]; PBMCs of individual 2, HA 1 mg/ml)?
Answer: 1.8x

Question: And the “IL-6 production, fold increase” value ([2]; PBMCs of individual 3, HA 1 mg/ml)?
Answer: 4.1x

Question: And the “IL-6 production, fold increase” value ([2]; PBMCs of individual 4, HA 1 mg/ml)?
Answer: 1.4x

Question: What about the “IL-6 production, fold increase” value ([2]; PBMCs of individual 5, HA 1 mg/ml) of the same substance?
Answer: 6.3x

Question: What about the “IL-6 production, fold increase” value ([2]; PBMCs of individual #1, HA 0.008 mg/ml) of the same substance?
Answer: 2.4x

Question: What about the “IL-6 production, fold increase” value ([2]; PBMCs of individual #1, HA 0.040 mg/ml) of the same substance?
Answer: 3.5x

Question: What about the “IL-6 production, fold increase” value ([2]; PBMCs of individual #1, HA 0.200 mg/ml) of the same substance?
Answer: 2.9x

Question: And the “% INHIBITION of cell proliferation” value ([3]; HA 0.8 μg/ml, 48 h)?
Answer: 6%

Question: What about the “% INHIBITION of cell proliferation” value ([3]; HA 8.0 μg/ml, 48 h, listed as 0.5-7.5 × 10^5 Da HA) of the same substance?
Answer: 15%

Question: And the “% INHIBITION of cell proliferation” value ([3]; HA 80.0 μg/ml alone (+ saline), 24-well, Example 6)?
Answer: 38%

Question: And the “% INHIBITION of cell proliferation” value ([3]; HA 80.0 μg/ml, 48 h)?
Answer: 38%

Question: And the “% INHIBITION of cell proliferation” value ([4]; HA 0.8 μg/ml)?
Answer: 10%

Question: What about the “% INHIBITION of cell proliferation” value ([4]; HA 8.0 μg/ml) of the same substance?
Answer: 10%

Question: What about the “% INHIBITION of cell proliferation” value ([4]; HA 80.0 μg/ml) of the same substance?
Answer: 2%
